The source of these data is patent publication US10351546B2, “Pyridin-3-yl acetic acid derivatives as inhibitors of human immunodeficiency virus replication” (priority 2015, dated 2019).

For the first assay, the system named is NL-RLuc virus. Briefly: Inhibition of HIV replication (NL-RLuc luciferase reporter virus in MT-2 cells). The class given is cell-based. Particulars: Human immunodeficiency virus 1, MT2, 120 h, read-out: Activity. From the text: Inhibition of HIV replication: A recombinant NL-RLuc proviral clone was constructed in which a section of the nef gene form NL4-3 was replaced with the Renilla Luciferase gene. This virus is fully infectious and can undergo multiple cycles of replication in cell culture. In addition, the luciferous reporter provides a simple and easy method for quantitating the extent of virus growth and consequently, the antiviral activity of test compounds. The plasmid pNLRLuc contains the proviral NL-Rluc DNA cloned into pUC18 at the PvuII site. The NL-RLuc virus was prepared by transfection of 293T cells with the plasmid pNLRLuc. Transfections were performed using the LipofectAMINE PLUS kit form Invitrogen (Carlsbad, Calif.) according to the manufacturer and the virus generated was titered in MT-2 cells. For susceptibility analyses, the titrated virus was used to infect MT-2 cells in the presence of compound, and after 5 days of incubation, cells were processed and quantitated for virus growth by the amount of expressed luciferase. Assay media was RPMI 1640 supplemented with 10% heat inactivated fetal bovine serum (FBS), 100 units/ml penicillin G/100 units/ml streptomycin, 10 mM HEPES buffer pH 7.55 and 2 mM L-glutamine. The results form at least 2 experiments were used to calculate the EC50 values. Luciferase was quantitated using the Dual Luciferase kit form Promega (Madison, Wis.). Susceptibility of viruses to compounds was determined by incubation in the presence of serial dilutions of the compound. The 50% effective concentration (EC50) was calculated by using the exponential form of the median effect equation where (Fa)=1/[1+(ED50/drug conc.)^m](Johnson V A, Byington R T. Infectivity Assay. In Techniques in HIV Research. ed. Aldovini A, Walker B D. 71-76. New York: Stockton Press. 1990). Activity equal to A refers to a compound having an EC50≤100 nM, while B and C denote compounds having an EC50 between 100 nM and 1 uM (B) or >1 uM (C).
Background: A reporter such as luciferase makes a cellular process visible.
`Cc1nc(CO)c(-c2ccc(OCCc3ccc(F)cc3)cc2)c(N2CCC(C)(C)CC2)c1[C@H](OC(C)(C)C)C(=O)O` [Example 2, (S)-2-(tert-Butoxy)-2-(4-(4,4-dimethylpiperidin-1-yl)-5-(4-(4-fluorophenethoxy)phenyl)-6-(hydroxymethyl)-2-methylpyridin-3-yl)acetic acid]: the EC50 is below 0.1 µM.
With `Cc1nc(COCC2COC2)c([C@H](OC(C)(C)C)C(=O)O)c(N2CCC(C)(C)CC2)c1-c1ccc(OCCc2ccc(F)cc2)cc1` [Example 109, (S)-2-(tert-Butoxy)-2-(4-(4,4-dimethylpiperidin-1-yl)-5-(4-(4-fluorophenethoxy)phenyl)-6-methyl-2-((oxetan-3-ylmethoxy)methyl)pyridin-3-yl)acetic acid], the EC50 was below 0.1 µM.
With `COCCN(CCOC)Cc1nc(C)c([C@H](OC(C)(C)C)C(=O)O)c(N2CCC(C)(C)CC2)c1-c1ccc(OCCc2ccc(F)cc2)cc1` [Example 93, (S)-2-(6-((Bis(2-methoxyethyl)amino)methyl)-4-(4,4-dimethylpiperidin-1-yl)-5-(4-(4-fluorophenethoxy)phenyl)-2-methylpyridin-3-yl)-2-(tert-butoxy)acetic acid], the EC50 is below 0.1 µM.
Turning to `Cc1cc(F)ccc1CN1CCc2cc(-c3c(CNCc4ccncc4)nc(C)c([C@H](OC(C)(C)C)C(=O)O)c3N3CCC(C)(C)CC3)ccc2C1` [Example 124, (S)-2-(tert-Butoxy)-2-(4-(4,4-dimethylpiperidin-1-yl)-5-(2-(4-fluoro-2-methylbenzyl)-1,2,3,4-tetrahydroisoquinolin-6-yl)-2-methyl-6-(((pyridin-4-ylmethyl)amino)methyl)pyridin-3-yl)acetic acid], the EC50 was below 0.1 µM.
On to `Cc1cc(F)ccc1CN1CCc2cc(-c3c(CN4CCN(C)CC4)nc(C)c([C@H](OC(C)(C)C)C(=O)O)c3N3CCC(C)(C)CC3)ccc2C1` [Example 136, (S)-2-(tert-Butoxy)-2-(4-(4,4-dimethylpiperidin-1-yl)-5-(2-(4-fluoro-2-methylbenzyl)-1,2,3,4-tetrahydroisoquinolin-6-yl)-2-methyl-6-((4-methylpiperazin-1-yl)methyl)pyridin-3-yl)acetic acid], for which the EC50 was below 0.1 µM.
The same measure, in the same setting: then `Cc1nc(CN2CCN(C)CC2)c(-c2ccc(OCCc3ccc(F)cc3)cc2)c(N2CCC(C)(C)CC2)c1[C@H](OC(C)(C)C)C(=O)O` [Example 94, (S)-2-(tert-Butoxy)-2-(4-(4,4-dimethylpiperidin-1-yl)-5-(4-(4-fluorophenethoxy)phenyl)-2-methyl-6-((4-methylpiperazin-1-yl)methyl)pyridin-3-yl)acetic acid], with below 0.1 µM; and `Cc1cc(F)ccc1CN1CCc2cc(-c3c(CNCc4cccnc4)nc(C)c([C@H](OC(C)(C)C)C(=O)O)c3N3CCC(C)(C)CC3)ccc2C1` [Example 126, (S)-2-(tert-Butoxy)-2-(4-(4,4-dimethylpiperidin-1-yl)-5-(2-(4-fluoro-2-methylbenzyl)-1,2,3,4-tetrahydroisoquinolin-6-yl)-2-methyl-6-(((pyridin-3-ylmethyl)amino)methyl)pyridin-3-yl)acetic acid], with below 0.1 µM; and `Cc1nc(Cn2cnnc2C)c(-c2ccc(OCCc3ccc(F)cc3)cc2)c(N2CCC(C)(C)CC2)c1[C@H](OC(C)(C)C)C(=O)O` [Example 33, (S)-2-(tert-butoxy)-2-(4-(4,4-dimethylpiperidin-1-yl)-5-(4-(4-fluorophenethoxy)phenyl)-2-methyl-6-((3-methyl-4H-1,2,4-triazol-4-yl)methyl)pyridin-3-yl)acetic acid], with below 0.1 µM.
Consider `Cc1nc(CNCC2COC2)c(-c2ccc(OCCc3ccc(F)cc3)cc2)c(N2CCC(C)(C)CC2)c1[C@H](OC(C)(C)C)C(=O)O` [Example 76, (S)-2-(tert-Butoxy)-2-(4-(4,4-dimethylpiperidin-1-yl)-5-(4-(4-fluorophenethoxy)phenyl)-2-methyl-6-(((oxetan-3-ylmethyl)amino)methyl)pyridin-3-yl)acetic acid], for which the EC50 is below 0.1 µM.
With `Cc1cc(F)ccc1CN1CCc2cc(-c3c(CN4CCC(C)(C)CC4)nc(C)c([C@H](OC(C)(C)C)C(=O)O)c3N3CCC(C)(C)CC3)ccc2C1` [Example 120, (S)-2-(tert-Butoxy)-2-(4-(4,4-dimethylpiperidin-1-yl)-6-((4,4-dimethylpiperidin-1-yl)methyl)-5-(2-(4-fluoro-2-methylbenzyl)-1,2,3,4-tetrahydroisoquinolin-6-yl)-2-methylpyridin-3-yl)acetic acid], the EC50 was below 0.1 µM.
Still for that read-out and setting: then `Cc1nc(N)c(-c2ccc(OCCc3ccc(F)cc3)cc2)c(N2CCC(C)(C)CC2)c1[C@H](OC(C)(C)C)C(=O)O` [Example 46, (S)-2-(6-Amino-4-(4,4-dimethylpiperidin-1-yl)-5-(4-(4-fluorophenethoxy)phenyl)-2-methylpyridin-3-yl)-2-(tert-butoxy)acetic acid], with below 0.1 µM; and `C#Cc1nc(C)c([C@H](OC(C)(C)C)C(=O)O)c(N2CCC(C)(C)CC2)c1-c1ccc(OCCc2ccc(F)cc2)cc1` [Example 161, (S)-2-(tert-Butoxy)-2-(4-(4,4-dimethylpiperidin-1-yl)-6-ethynyl-5-(4-(4-fluorophenethoxy)phenyl)-2-methylpyridin-3-yl)acetic acid], with below 0.1 µM.
On the same count and under the same terms, then `Cc1nc(CNC=O)c(-c2ccc(OCCc3ccc(F)cc3)cc2)c(N2CCC(C)(C)CC2)c1[C@H](OC(C)(C)C)C(=O)O` [Example 107, (S)-2-(tert-Butoxy)-2-(4-(4,4-dimethylpiperidin-1-yl)-5-(4-(4-fluorophenethoxy)phenyl)-6-(formamidomethyl)-2-methylpyridin-3-yl)acetic acid], with below 0.1 µM.
For the compound `Cc1nc(CNC2COC2)c(-c2ccc(OCCc3ccc(F)cc3)cc2)c(N2CCC(C)(C)CC2)c1[C@H](OC(C)(C)C)C(=O)O` [Example 77, (S)-2-(tert-Butoxy)-2-(4-(4,4-dimethylpiperidin-1-yl)-5-(4-(4-fluorophenethoxy)phenyl)-2-methyl-6-((oxetan-3-ylamino)methyl)pyridin-3-yl)acetic acid], the EC50 was below 0.1 µM.
Same read-out and setting: then `Cc1nc(Cn2ncnc2C)c(-c2ccc(OCCc3ccc(F)cc3)cc2)c(N2CCC(C)(C)CC2)c1[C@H](OC(C)(C)C)C(=O)O` [Example 32, (S)-2-(tert-butoxy)-2-(4-(4,4-dimethylpiperidin-1-yl)-5-(4-(4-fluorophenethoxy)phenyl)-2-methyl-6-((5-methyl-1H-1,2,4-triazol-1-yl)methyl)pyridin-3-yl)acetic acid], with below 0.1 µM.
For `CCCCN(C)C(=O)c1nc(C)c([C@H](OC(C)(C)C)C(=O)O)c(N2CCC(C)(C)CC2)c1-c1ccc(OCCc2ccc(F)cc2)cc1` [Example 43, (S)-2-(tert-Butoxy)-2-(6-(butyl(methyl)carbamoyl)-4-(4,4-dimethylpiperidin-1-yl)-5-(4-(4-fluorophenethoxy)phenyl)-2-methylpyridin-3-yl)acetic acid], the EC50 is below 0.1 µM.
On the same count and under the same terms, then `CCOCCOCCOCc1nc(C)c(-c2ccc(OCCc3ccc(F)cc3)cc2)c(N2CCC(C)(C)CC2)c1[C@H](OC(C)(C)C)C(=O)O` [Example 110, (S)-2-(tert-Butoxy)-2-(4-(4,4-dimethylpiperidin-1-yl)-2-((2-(2-ethoxyethoxy)ethoxy)methyl)-5-(4-(4-fluorophenethoxy)phenyl)-6-methylpyridin-3-yl)acetic acid], with below 0.1 µM; and `Cc1nc(COCCN2CCS(=O)(=O)CC2)c(-c2ccc(OCCc3ccc(F)cc3)cc2)c(N2CCC(C)(C)CC2)c1[C@H](OC(C)(C)C)C(=O)O` [Example 28, (S)-2-(tert-Butoxy)-2-(4-(4,4-dimethylpiperidin-1-yl)-6-((2-(1,1-dioxidothiomorpholino)ethoxy)methyl)-5-(4-(4-fluorophenethoxy)phenyl)-2-methylpyridin-3-yl)acetic acid], with below 0.1 µM; and `Cc1nc(CN2CCC2)c(-c2ccc(OCCc3ccc(F)cc3)cc2)c(N2CCC(C)(C)CC2)c1[C@H](OC(C)(C)C)C(=O)O` [Example 81, (S)-2-(6-(Azetidin-1-ylmethyl)-4-(4,4-dimethylpiperidin-1-yl)-5-(4-(4-fluorophenethoxy)phenyl)-2-methylpyridin-3-yl)-2-(tert-butoxy)acetic acid], with below 0.1 µM.
With `Cc1cc(F)ccc1CN1CCc2cc(-c3c(C(C)O)nc(C)c([C@H](OC(C)(C)C)C(=O)O)c3N3CCC(C)(C)CC3)ccc2C1` (single isomer, unassigned) [Example 152], the EC50 is below 0.1 µM.
On the same count and under the same terms, then `CNc1nc(C)c([C@H](OC(C)(C)C)C(=O)O)c(N2CCC(C)(C)CC2)c1-c1ccc(OCCc2ccc(F)cc2)cc1` [Example 49, (S)-2-(tert-Butoxy)-2-(4-(4,4-dimethylpiperidin-1-yl)-5-(4-(4-fluorophenethoxy)phenyl)-2-methyl-6-(methylamino)pyridin-3-yl)acetic acid], with below 0.1 µM.

The assay is the same for the next values; noted with them: Human immunodeficiency virus 1, MT2, 120 h, read-out: EC50 μM.
For the compound `Cc1nc(COCC2COC2)c([C@H](OC(C)(C)C)C(=O)O)c(N2CCC(C)(C)CC2)c1-c1ccc(OCCc2ccc(F)cc2)cc1` [Example 109, (S)-2-(tert-Butoxy)-2-(4-(4,4-dimethylpiperidin-1-yl)-5-(4-(4-fluorophenethoxy)phenyl)-6-methyl-2-((oxetan-3-ylmethoxy)methyl)pyridin-3-yl)acetic acid], the EC50 was 0.005 µM.
`Cc1nc(CNC2COC2)c(-c2ccc(OCCc3ccc(F)cc3)cc2)c(N2CCC(C)(C)CC2)c1[C@H](OC(C)(C)C)C(=O)O` [Example 77, (S)-2-(tert-Butoxy)-2-(4-(4,4-dimethylpiperidin-1-yl)-5-(4-(4-fluorophenethoxy)phenyl)-2-methyl-6-((oxetan-3-ylamino)methyl)pyridin-3-yl)acetic acid]: the EC50 was found to be 0.067 µM.
In the case of `CNc1nc(C)c([C@H](OC(C)(C)C)C(=O)O)c(N2CCC(C)(C)CC2)c1-c1ccc(OCCc2ccc(F)cc2)cc1` [Example 49, (S)-2-(tert-Butoxy)-2-(4-(4,4-dimethylpiperidin-1-yl)-5-(4-(4-fluorophenethoxy)phenyl)-2-methyl-6-(methylamino)pyridin-3-yl)acetic acid], the EC50 was found to be 0.001 µM.
